US8389541B2, “Inhibitors of protein tyrosine kinase activity” (MethylGene Inc., priority 2007, dated 2013)

Experiments:
[1] = molecular target: recombinant human c-Met/HGF receptor (Homo sapiens, UniProt P08581); test: In vitro receptor tyrosine kinase assay (DELFIA), c-Met/HGF receptor
[2] = system: A549 cells; test: Wound healing assay in A549 cells (HGF-stimulated); type: cell-based; conditions: Homo sapiens, last dose that inhibited gap closing by more than 25%, 24 h, read-out: A549 WOUND_HEALING IC50
Procedure: Wound healing assay in A549 cells. A549 cells (ATCC) are seeded in DMEM low glucose medium complemented with 10% FBS into 24-well plates at a density of 7.5×10^4 cells/well and grown to confluence (48 h). Inhibitors were added to the medium at a range of doses (0.00032-10 uM) for 3 h at which point a gap is introduced by scraping cells with a P1000 pipette tip. Cells are then stimulated to migrate by the addition of HGF (in the form of conditioned medium from 293T cells over-expressing the human HGF gene) and the culture is continued for 24 h. […] For the purpose of standardization, a control is carried on every assay plates.

[3] = system: DU145 cells; test: Scatter assay in DU145 cells (HGF-stimulated); type: cell-based; conditions: Homo sapiens, DU-145, last dose that created an inhibitory effect on scattering, 24 h, read-out: DU145 SCATT. INHIB IC50
Procedure: Scatter assays in DU145. The scatter assay is performed as described previously (Miura H, Nishimura K, Tsujimura A, Matsumiya K, Matsumoto K, Nakamura T, et al. Effects of hepatocyte growth factor on E-cadherin-mediated cell-cell adhesion in DU145 prostate cancer cells. Urology 2001; 58(6):1064-9) for DU145 prostate carcinoma cells with the indicated modifications. In brief, DU145 cells (ATCC) are seeded in 24-well plates at a density of 7×10^3 cells/well in MEM medium complemented with 10% FBS and cultured for 48 h, to allow the formation of small compact colonies of cells. Inhibitors are subsequently added at a range of doses (0.00032-10 uM) for 3 h. Cells are then stimulated to migrate by the addition of HGF (in the form of conditioned medium from 293T cells over-expressing the human HGF gene) and the culture is continued for another 24 h. The IC50 values is defined as the last dose that created an inhibitory effect on scattering. For the purpose of standardization a control is carried on every test plates for the DU145 scattering assays.

[4] = molecular target: T1, VEGF receptor KDR (Homo sapiens, UniProt P35968); test: In vitro receptor tyrosine kinase assay (DELFIA), VEGF receptor KDR; type: biochemical; conditions: GST-VEGFR2 806-1356, 0.6 uM ATP; read-out: VEGFR IC50
T1 construct: made in house; host or cells: Sf9 cells (Spodoptera frugiperda), baculovirus
Text: In the case of VEGF receptor KDR a 1.6-kb cDNA corresponding to the catalytic domain of VEGFR2 or KDR (Genbank accession number AF035121 amino acid 806 to 1356) is cloned into the Pst I site of the pDEST20 Gateway vector (Invitrogen) for the production of a GST-tagged version of that enzyme.
The GST-VEGFR2806-1356 protein is expressed in Sf9 cells (Spodoptera frugiperda) upon infection with recombinant baculovirus construct.
The supernatant is loaded onto a GST-agarose column (Sigma) equilibrated with PBS pH 7.3. Following a four column volume (CV) wash with PBS pH 7.3+1% Triton X-100 and 4 CV wash with buffer B (50 mM Tris pH 8.0, 20% glycerol and 100 mM NaCl), bound proteins are step eluted with 5 CV of buffer B supplemented with 5 mM DTT and 15 mM glutathion. […] Final GST-VEGFR2806-1356 protein preparations concentrations are about 0.7 mg/ml with purity approximating 70%.

[5] = molecular target: T2, c-Met (Homo sapiens, UniProt P08581); test: Inhibition of c-Met phosphorylation in MKN45 cells (direct ELISA); type: cell-based; conditions: 3 h treatment, read-out: CMET ELISA IN MKN45 IC50
T2 construct: endogenous in cells; host or cells: MKN45 gastric carcinoma cells
Text: The following assay is used to determine inhibition of c-Met phosphorylation.
The c-Met receptor is expressed in numerous cancer cell lines derived from tumors of epithelial origin. In MKN45 gastric carcinoma cells the c-Met gene is amplified, resulting in several-fold overexpression of the receptor and its constitutive activation. For this reason constitutively high levels of ERK1/2 are also detected in these cells, independently of HGF-added stimulation (Smolen G A, Sordella R, Muir B, Mohapatra G, Barmettler A, Archibald H, et al. Amplification of MET may identify a subset of cancers with extreme sensitivity to the selective tyrosine kinase inhibitor PHA-665752. Proc Natl Acad Sci USA 2006). We have developed a sensitive method to follow c-Met phosphorylation in these cells. In previous studies with earlier generation c-Met inhibitors, we established that the IC50s for the inhibition of c-Met phosphorylation were identical using this novel ELISA approach and standard western blot procedure, with antibodies directed against the activating autocatalysis tyrosine residues of c-MET (Tyr Y1230-34-35).
Cell treatments: MKN45 cells are seeded into wells of 96-well plates at a density of 3×10^4 cells/well in RPMI medium supplemented with 10% FBS. HA-TPR-RON expressing 293T (clone 18) cells are seeded into wells of 96-well plates at a density of 3×10^4 cells/well in DMEM medium supplemented with 10% FBS. Cells are grown for 48 h prior to treatments with compounds of interest. Inhibitors are added to the medium in triplicate wells at the indicated doses. After 3 h of treatment, media is aspirated and cells are lysed by one freeze-thaw cycle in 50 μL/well hypotonic lysis buffer (25 mM HEPES pH 7.5, 10 mM NaCl with 1 mM 4-(2-aminoethyl)benzenesulfonyl fluoride hydrochloride, 200 μM sodium orthovanadate, 1 mM sodium fluoride, 10 μg/mL of leupeptin, 10 μg/mL of aprotinin/mL, 1 μg/mL of pepstatin and 50 μg/mL Na-p-tosyl-L-lysine chloromethyl ketone hydrochloride.
Detection of phosphorylated c-Met by direct ELISA: Lysate samples (5 μL) from wells of treatment plates are transferred to 80 μL of binding buffer (25 mM HEPES pH 7.5, 200 mM NaCl) in wells of high binding white polysterene 96-well plates (Corning). After an overnight protein binding incubation at 4° C., lysates are aspirated and wells are blocked for 1 h at 37° C. in TBST supplemented with 5% BSA. Plates are incubated with the primary antibodies anti-phospho-Tyrosine (Millipore, 4G10) diluted 1/15000 in TBST supplemented with 5% BSA for 1 h at room temperature. Plates are washed 3 times on a plate washer (SkanWasher, Molecular Devises), and incubated with the reporter antibody […] (Sigma) diluted 1/15000 in TBST supplemented with 5% BSA, for 1 h at room temperature. Plates are washed 3 times with TBST using on a plate washer and subsequently incubated with chemiluminescent substrate solution (ECL, Roche). Luminescence signal is captured on a Polar Star Optima apparatus (BMG LabTech).
Average values of the triplicate samples are used to prepare IC50 curves using a 4-parameter fit model. These curves are calculated using, for example, GraFit 5.0 software. For assay standardization purpose, an internal control is included on each experimental test plate.

T1 sequence (P35968 806-1356): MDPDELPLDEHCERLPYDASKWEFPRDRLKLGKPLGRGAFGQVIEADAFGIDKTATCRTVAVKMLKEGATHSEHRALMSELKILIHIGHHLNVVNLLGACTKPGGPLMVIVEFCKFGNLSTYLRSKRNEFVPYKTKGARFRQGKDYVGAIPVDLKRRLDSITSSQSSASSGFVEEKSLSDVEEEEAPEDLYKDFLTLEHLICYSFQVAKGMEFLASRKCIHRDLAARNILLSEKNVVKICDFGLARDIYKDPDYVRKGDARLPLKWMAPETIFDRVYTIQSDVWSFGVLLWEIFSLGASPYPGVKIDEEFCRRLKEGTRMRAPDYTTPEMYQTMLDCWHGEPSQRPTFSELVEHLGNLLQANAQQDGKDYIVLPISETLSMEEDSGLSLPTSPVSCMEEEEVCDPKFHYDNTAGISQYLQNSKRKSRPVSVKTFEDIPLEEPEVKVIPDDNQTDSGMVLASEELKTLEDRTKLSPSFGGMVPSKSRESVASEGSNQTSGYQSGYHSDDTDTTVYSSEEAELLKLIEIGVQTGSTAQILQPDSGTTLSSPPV
T2 sequence (P08581 25-1390): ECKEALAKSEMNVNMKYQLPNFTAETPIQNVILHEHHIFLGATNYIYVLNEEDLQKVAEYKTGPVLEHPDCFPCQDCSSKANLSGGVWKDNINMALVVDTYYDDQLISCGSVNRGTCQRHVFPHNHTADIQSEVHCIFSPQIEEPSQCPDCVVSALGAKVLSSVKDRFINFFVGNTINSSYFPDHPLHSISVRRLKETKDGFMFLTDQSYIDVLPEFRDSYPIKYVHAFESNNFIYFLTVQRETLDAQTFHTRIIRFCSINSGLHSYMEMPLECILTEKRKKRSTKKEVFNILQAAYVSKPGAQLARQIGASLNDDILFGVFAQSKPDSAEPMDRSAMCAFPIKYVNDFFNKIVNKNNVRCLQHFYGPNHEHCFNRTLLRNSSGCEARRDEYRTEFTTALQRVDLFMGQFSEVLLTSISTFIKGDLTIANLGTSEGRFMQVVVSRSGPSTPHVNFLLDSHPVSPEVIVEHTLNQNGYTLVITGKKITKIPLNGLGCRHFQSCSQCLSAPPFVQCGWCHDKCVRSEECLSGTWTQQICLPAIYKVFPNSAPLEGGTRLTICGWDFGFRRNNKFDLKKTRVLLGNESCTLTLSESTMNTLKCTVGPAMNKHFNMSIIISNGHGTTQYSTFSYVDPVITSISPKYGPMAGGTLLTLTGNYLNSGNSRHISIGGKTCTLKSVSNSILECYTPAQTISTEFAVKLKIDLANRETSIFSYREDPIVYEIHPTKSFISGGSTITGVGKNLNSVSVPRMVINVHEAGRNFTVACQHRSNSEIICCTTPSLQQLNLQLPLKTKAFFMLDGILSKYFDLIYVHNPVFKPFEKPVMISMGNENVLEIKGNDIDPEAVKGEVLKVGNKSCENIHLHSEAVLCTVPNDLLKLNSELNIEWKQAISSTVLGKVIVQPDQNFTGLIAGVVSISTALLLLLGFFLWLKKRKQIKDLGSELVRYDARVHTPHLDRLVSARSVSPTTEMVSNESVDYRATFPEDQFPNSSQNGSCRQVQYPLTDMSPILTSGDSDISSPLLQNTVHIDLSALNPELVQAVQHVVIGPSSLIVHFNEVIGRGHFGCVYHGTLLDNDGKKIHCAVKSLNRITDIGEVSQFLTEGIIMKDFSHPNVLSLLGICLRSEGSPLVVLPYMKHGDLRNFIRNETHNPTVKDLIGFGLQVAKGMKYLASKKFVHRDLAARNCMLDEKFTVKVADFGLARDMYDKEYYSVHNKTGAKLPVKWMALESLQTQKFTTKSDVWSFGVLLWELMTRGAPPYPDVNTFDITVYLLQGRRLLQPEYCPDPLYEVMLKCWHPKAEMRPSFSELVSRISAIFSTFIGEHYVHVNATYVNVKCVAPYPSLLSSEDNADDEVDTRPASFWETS
recombinant human c-Met/HGF receptor, sequence (P08581 1078-1337): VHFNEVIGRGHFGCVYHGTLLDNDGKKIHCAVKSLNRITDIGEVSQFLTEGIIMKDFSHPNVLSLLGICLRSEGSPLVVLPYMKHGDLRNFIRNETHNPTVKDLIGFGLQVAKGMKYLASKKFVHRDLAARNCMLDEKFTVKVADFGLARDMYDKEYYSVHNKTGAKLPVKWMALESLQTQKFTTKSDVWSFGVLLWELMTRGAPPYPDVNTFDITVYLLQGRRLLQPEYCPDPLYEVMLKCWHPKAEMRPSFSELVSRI

Compound	IC50 [1]	IC50 [2]	IC50 [3]	IC50 [4]	IC50 [5]
COCCNCc1ccc(-c2cc3nccc(Oc4ccc(NC(=O)NC(=O)Cc5ccccc5OC)cc4F)c3s2)cc1	< 250 nM	500 to 1000 nM	> 1000 nM	< 250 nM	500 to 1000 nM
COCCNC(=O)c1ccc(-c2cc3nccc(Oc4ccc(NC(=S)NC(=O)Cc5ccccc5)cc4F)c3s2)cc1	< 250 nM	> 1000 nM	250 to 500 nM	< 250 nM	< 250 nM
CN(C)CCOC(=O)N1CC=C(c2cc3nccc(Oc4ccc(NC(=S)NC(=O)Cc5ccccc5)cc4F)c3s2)CC1	< 250 nM	< 250 nM	< 250 nM	< 250 nM	< 250 nM
CN(C)CCOC(=O)N1CC=C(c2cc3nccc(Oc4ccc(NC(=O)CC(=O)N(C)c5ccccc5)cc4F)c3s2)CC1	< 250 nM	> 1000 nM	250 to 500 nM	< 250 nM	< 250 nM
COC[C@H](C)NCc1ccc(-c2cc3nccc(Oc4ccc(NC(=O)C5(C(=O)Nc6ccccc6)CC5)cc4F)c3s2)cc1	< 250 nM	< 250 nM	< 250 nM	< 250 nM	< 250 nM
COCCNCCc1cccc(-c2cc3nccc(Oc4ccc(NC(=O)C5(C(=O)Nc6ccccc6)CC5)cc4F)c3s2)c1	< 250 nM	< 250 nM	< 250 nM	< 250 nM	< 250 nM
COCCNCc1cccc(-c2cc3nccc(Oc4ccc(NC(=S)NC(=O)Cc5ccccc5)cc4F)c3s2)n1	< 250 nM	< 250 nM	< 250 nM	< 250 nM	< 250 nM
COCCNCc1cccc(-c2cc3nccc(Oc4ccc(NC(=O)C5(C(=O)Nc6ccccc6)CC5)cc4F)c3s2)c1	< 250 nM	< 250 nM	< 250 nM	< 250 nM	< 250 nM
COCCNCc1cccc(-c2cc3nccc(Oc4ccc(NC(=O)CC(=O)Nc5ccccc5)cc4F)c3s2)c1	< 250 nM	250 to 500 nM	250 to 500 nM	< 250 nM	250 to 500 nM
O=C(Nc1ccccc1)C1(C(=O)Nc2ccc(Oc3ccnc4cc(-c5ccc(CNC6CC6)cc5)sc34)c(F)c2)CC1	< 250 nM	250 to 500 nM	< 250 nM	< 250 nM	< 250 nM
COCCNCCn1cc(-c2cc3nccc(Oc4ccc(NC(=O)C5(C(=O)Nc6ccccc6)CC5)cc4F)c3s2)cn1	< 250 nM	< 250 nM	< 250 nM	< 250 nM	< 250 nM
COCCNCCC(=O)N1CC=C(c2cc3nccc(Oc4ccc(NC(=O)CC(=O)N(C)c5ccccc5)cc4F)c3s2)CC1	< 250 nM	250 to 500 nM	< 250 nM	< 250 nM	< 250 nM

Next, values leading:

IC50 [1]	IC50 [2]	IC50 [3]	IC50 [4]	IC50 [5]	Compound
< 250 nM	> 1000 nM	> 1000 nM	< 250 nM	< 250 nM	COCCNCc1ccc(-c2cc3nccc(Oc4ccc(NC(=S)NC(=O)Cc5ccc(F)cc5)cc4F)c3s2)o1
< 250 nM	250 to 500 nM	250 to 500 nM	< 250 nM	< 250 nM	CSCCNCc1ccc(-c2cc3nccc(Oc4ccc(NC(=S)NC(=O)Cc5ccccc5)cc4F)c3s2)cc1
< 250 nM	> 1000 nM	250 to 500 nM	< 250 nM	< 250 nM	CSCCNCc1ccc(-c2cc3nccc(Oc4ccc(NC(=S)NC(=O)Cc5ccc(F)cc5)cc4F)c3s2)cc1
< 250 nM	> 1000 nM	250 to 500 nM	< 250 nM	< 250 nM	COCCNCc1ccc(-c2cc3nccc(Oc4ccc(NC(=S)NC(=O)Cc5ccccc5)cc4F)c3s2)s1
< 250 nM	250 to 500 nM	< 250 nM	< 250 nM	< 250 nM	COCCNCCc1cccc(-c2cc3nccc(Oc4ccc(NC(=S)NC(=O)Cc5ccc(F)cc5)cc4F)c3s2)c1
< 250 nM	< 250 nM	< 250 nM	< 250 nM	< 250 nM	COCCNCCn1cnc(-c2cc3nccc(Oc4ccc(NC(=S)NC(=O)Cc5ccccc5)cc4F)c3s2)c1
< 250 nM	< 250 nM	< 250 nM	< 250 nM	< 250 nM	COCCNCCn1cc(-c2cc3nccc(Oc4ccc(NC(=O)C5(C(=O)Nc6ccc(F)cc6)CC5)cc4F)c3s2)cn1
< 250 nM	> 1000 nM	250 to 500 nM	< 250 nM	< 250 nM	COCCNCc1ccc(-c2cc3nccc(Oc4ccc(NC(=O)CC(=O)Nc5ccccc5)cc4F)c3s2)c(F)c1
< 250 nM	250 to 500 nM	250 to 500 nM	< 250 nM	< 250 nM	O=C(Cc1ccc(F)cc1)NC(=S)Nc1ccc(Oc2ccnc3cc(-c4ccc(CNC5CC5)cc4)sc23)c(F)c1
< 250 nM	250 to 500 nM	250 to 500 nM	< 250 nM	< 250 nM	COCCNCc1cccc(-c2cc3nccc(Oc4ccc(NC(=S)NC(=O)Cc5ccc(F)cc5)cc4F)c3s2)c1 [drawing 296]
< 250 nM	250 to 500 nM	< 250 nM	< 250 nM	< 250 nM	COC[C@H](C)NCc1cccc(-c2cc3nccc(Oc4ccc(NC(=S)NC(=O)Cc5ccc(F)cc5)cc4F)c3s2)c1 [drawing 297]
